Assay results: US8673903B2, “Substituted 8-alkoxy-2-aminotetralin derivatives, and use thereof” (Bayer Intellectual Property GmbH, priority 2010, dated 2014)

What was measured:
[1] = molecular target: T1, soluble guanylate cyclase (sGC) (Rattus norvegicus, UniProt P20595); test: Stimulation of sGC enzyme activity (PPi luminescence detection); type: biochemical; conditions: for EC50: read-out: EC50 (concentration at 50% of maximum efficacy), activating action at the sGC enzyme in vitro
T1 construct: made in house
T1 sequence (P20595 1-619): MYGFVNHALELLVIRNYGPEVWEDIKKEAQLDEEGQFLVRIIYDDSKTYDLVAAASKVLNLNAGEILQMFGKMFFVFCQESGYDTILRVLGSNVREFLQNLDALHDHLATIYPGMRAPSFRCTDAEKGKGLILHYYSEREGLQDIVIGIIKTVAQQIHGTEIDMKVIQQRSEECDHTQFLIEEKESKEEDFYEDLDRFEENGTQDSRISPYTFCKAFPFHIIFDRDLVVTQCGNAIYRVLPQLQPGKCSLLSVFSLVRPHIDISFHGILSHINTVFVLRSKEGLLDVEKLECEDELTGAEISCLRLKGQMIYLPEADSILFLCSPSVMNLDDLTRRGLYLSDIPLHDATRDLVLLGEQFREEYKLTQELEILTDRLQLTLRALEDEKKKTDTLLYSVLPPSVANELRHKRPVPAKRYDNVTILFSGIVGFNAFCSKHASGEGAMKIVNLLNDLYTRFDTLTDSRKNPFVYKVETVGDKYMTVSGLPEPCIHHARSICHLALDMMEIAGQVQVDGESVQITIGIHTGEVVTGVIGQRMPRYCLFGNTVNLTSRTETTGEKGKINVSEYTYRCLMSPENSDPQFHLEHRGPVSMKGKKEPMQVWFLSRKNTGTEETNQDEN
T1 sequence (P19686 1-690 partner): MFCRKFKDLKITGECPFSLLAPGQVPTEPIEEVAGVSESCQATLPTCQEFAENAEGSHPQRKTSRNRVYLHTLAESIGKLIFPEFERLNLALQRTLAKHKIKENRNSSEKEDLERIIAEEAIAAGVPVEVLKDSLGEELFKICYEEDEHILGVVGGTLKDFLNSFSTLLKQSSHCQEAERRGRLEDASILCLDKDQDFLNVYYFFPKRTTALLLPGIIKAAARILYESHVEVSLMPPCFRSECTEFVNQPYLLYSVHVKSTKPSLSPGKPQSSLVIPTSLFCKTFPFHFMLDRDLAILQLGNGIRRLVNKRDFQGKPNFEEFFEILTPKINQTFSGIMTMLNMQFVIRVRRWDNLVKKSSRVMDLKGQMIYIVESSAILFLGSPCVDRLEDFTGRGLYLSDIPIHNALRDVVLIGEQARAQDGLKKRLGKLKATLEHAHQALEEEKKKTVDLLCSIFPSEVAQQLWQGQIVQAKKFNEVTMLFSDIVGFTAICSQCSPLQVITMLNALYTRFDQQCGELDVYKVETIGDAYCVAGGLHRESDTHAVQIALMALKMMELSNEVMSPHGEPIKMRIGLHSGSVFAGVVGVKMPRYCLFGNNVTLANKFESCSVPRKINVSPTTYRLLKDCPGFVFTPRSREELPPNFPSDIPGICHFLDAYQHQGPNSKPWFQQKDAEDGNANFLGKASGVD
Method: B-2. Stimulation of sGC Enzyme Activity
Soluble guanylate cyclase (sGC) converts on stimulation GTP into cGMP and pyrophosphate (PPi). PPi is detected with the aid of the assay described below. The signal produced in the assay increases as the reaction progresses and serves as a measure of the sGC enzyme activity under the given stimulation.
To carry out the assay, 29 μl of enzyme solution [0-10 nM soluble guanylate cyclase (prepared according to Honicka et al., J. Mol. Med. 77, 14-23 (1999)) in 50 mM TEA, 2 mM MgCl2, 0.1% BSA (fraction V), 0.005% Brij®, pH 7.5] are initially introduced into a microplate, and 1 μl of the substance to be tested (as a serially diluted solution in DMSO) is added. The mixture is incubated at room temperature for 10 min. Then 20 μl of detection mix [1.2 nM Firefly Luciferase (Photinus pyralis luciferase, Promega), 29 μM dehydroluciferin (prepared according to Bitler & McElroy, Arch. Biochem. Biophys. 72, 358 (1957)), 122 μM luciferin (Promega), 153 μM ATP (Sigma) and 0.4 mM DTT (Sigma) in 50 mM TEA, 2 mM MgCl2, 0.1% BSA (fraction V), 0.005% Brij®, pH 7.5] are added. The enzyme reaction is started by adding 20 μl of substrate solution [1.25 mM guanosine 5′-triphosphate (Sigma) in 50 mM TEA, 2 mM MgCl2, 0.1% BSA (fraction V), 0.005% Brij®, pH 7.5] and measured continuously in a luminometer. The extent of the stimulation by the substance to be tested can be determined relative to the signal of the unstimulated reaction.
The activation of heme-free guanylate cyclase is examined by addition of 25 μM of 1H-1,2,4-oxadiazolo[4,3-a]quinoxalin-1-one (ODQ) to the enzyme solution and subsequent incubation for 30 minutes and compared to the stimulation of the native enzyme.

[2] = tested on: rabbit saphenous artery rings; test: Vasorelaxant effect in vitro on phenylephrine-contracted saphenous artery rings; parameters: species or system Rabbits; conditions: Oryctolagus cuniculus, contraction induced by phenylephrine
Method: B-3. Vasorelaxant Effect In Vitro:
Rabbits are anesthetized and sacrificed by intravenous injection of thiopental sodium (about 50 mg/kg) and exsanguinated. The saphenous artery is removed and divided into rings 3 mm wide. The rings are mounted singly on in each case a pair of triangular hooks open at the end and made of 0.3 mm-thick special wire (Remanium®). Each ring is placed under an initial tension in 5 ml organ baths with Krebs-Henseleit solution which is at 37° C., is gassed with carbogen and has the following composition: NaCl 119 mM; KCl 4.8 mM; CaCl2×2 H2O 1 mM; MgSO4×7 H2O 1.4 mM; KH2PO4 1.2 mM; NaHCO3 25 mM; glucose 10 mM; bovine serum albumin 0.001%. The force of contraction is detected with Statham UC2 cells, amplified and digitized via A/D converters (DAS-1802 HC, Keithley Instruments, Munich) and recorded in parallel on chart recorders. Contractions are induced by addition of phenylephrine.
After several (generally 4) control cycles, the substance to be investigated is added in each further run in increasing dosage, and the level of the contraction achieved under the influence of the test substance is compared with the level of the contraction reached in the last preceding run. The concentration necessary to reduce the contraction reached in the preceding control by 50% is calculated from this (IC50). The standard application volume is 5 μl. The proportion of DMSO in the bath solution corresponds to 0.1%.

[3] = molecular target: T2, soluble guanylate cyclase (sGC), recombinant guanylate cyclase reporter cell line (CHO) (Rattus norvegicus, UniProt P20595); test: Action at a recombinant guanylate cyclase reporter cell line (CHO reporter cell); type: cell-based
T2 construct: expressed in transfected cells; host or cells: CHO
T2 sequence (P20595 1-619): T1 sequence (P20595 1-619)
T2 sequence (P19686 1-690 partner): T1 sequence (P19686 1-690 partner)
Method: B-1. Action at a Recombinant Guanylate Cyclase Reporter Cell Line
The cellular action of the compounds according to the invention is determined at a recombinant guanylate cyclase reporter cell line, as described in F. Wunder et al., Anal. Biochem. 339, 104-112 (2005).

| MEC (minimum effective concentration), activating action at the sGC enzyme in vitro [1] [nM] | IC50 [2] [µM] | MEC (minimum effective concentration), sGC-activating activity in the CHO reporter cell in vitro [3] [nM] | EC50 [1] [µM] | SMILES |
| --- | --- | --- | --- | --- |
| 0.7 | – | 3.0 | 0.0075 | O=C(O)CCCCN(Cc1ccc(C(=O)O)cc1)C1CCc2cccc(OCc3ccc(CCc4ccccc4)cc3)c2C1 (centres unmarked) [Example 4] |
| 830 | – | – | – | O=C(O)CCCCN(Cc1ccc(C(=O)O)cc1)C1CCc2cccc(OCCCN3CCCC3=O)c2C1 (centres unmarked) [Example 7] |
| 0.13 | 9.14 | 0.3 | 0.0014 | O=C(O)CCCCN(Cc1ccc(C(=O)O)cc1)C1CCc2cccc(OCc3ccc(CCc4ccccc4)cc3)c2C1 (single isomer, unassigned) [Example 5] |

Continued, compound first:

| SMILES | MEC (minimum effective concentration), activating action at the sGC enzyme in vitro [1] [nM] | IC50 [2] [µM] | MEC (minimum effective concentration), sGC-activating activity in the CHO reporter cell in vitro [3] [nM] | EC50 [1] [µM] |
| --- | --- | --- | --- | --- |
| O=C(O)CCCCN(Cc1ccc(C(=O)O)cc1)C1CCc2cccc(OCCCN3CCOCC3=O)c2C1 (centres unmarked) [Example 9] | 700 | – | – | – |
| O=C(O)CCCCN(Cc1ccc(C(=O)O)cc1)C1CCc2cccc(OCc3ccc(CCc4ccccc4)cc3)c2C1 (centres unmarked) [Example 6] | – | 4.38 | – | – |
| O=C(O)CCCCN(Cc1ccc(C(=O)O)cc1)C1CCc2cccc(OCc3cccc(F)c3)c2C1 (centres unmarked) [Example 11] | 200 | – | 300 | – |
| CC(C)(C)c1ccc(COc2cccc3c2CC(N(CCCCC(=O)O)Cc2ccc(C(=O)O)cc2)CC3)cc1 (racemic) [Example 1, rac-4-{[{8-[(4-tert-Butylbenzyl)oxy]-1,2,3,4-tetrahydronaphthalen-2-yl}(4-carboxybutyl)amino]-methyl}benzoic acid] | 0.12 | 0.113 | 0.3 | 0.0085 |
| CC(C)CCCCOc1cccc2c1CC(N(CCCCC(=O)O)Cc1ccc(C(=O)O)cc1)CC2 (centres unmarked) [Example 10] | 48 | – | 30 | 0.62 |
| CC(C)(C)c1nc(COc2cccc3c2CC(N(CCCCC(=O)O)Cc2ccc(C(=O)O)cc2)CC3)no1 (centres unmarked) [Example 12] | 205 | – | – | – |
